Experimental findings from ChEMBL document CHEMBL1697781, “Assessment of the health effects of chemicals in humans: II. Construction of an adverse effects database for QSAR modeling” (Curr Drug Discov Technol, 2004) are described below.

What all share (conditions): human
The test system of data set [1] is Hepatotoxicity. The experiment in a line: FDA HLAED, serum glutamic oxaloacetic transaminase (SGOT) increase.
In data set [2] the test system is Hepatotoxicity. The experiment in a line: FDA HLAED, alkaline phosphatase increase.
Data set [3] concerns Hepatotoxicity. As to the kind of experiment: FDA HLAED, liver enzyme composite activity.
Data set [4] relates to Hepatotoxicity. The experiment in a line: FDA HLAED, gamma-glutamyl transferase (GGT) increase.
Data set [5] concerns Hepatotoxicity. The experiment in a line: FDA HLAED, serum glutamic pyruvic transaminase (SGPT) increase.
The subject of data set [6] is Hepatotoxicity. The experiment in a line: FDA HLAED, lactate dehydrogenase (LDH) increase.
For GGT Increase - Index Value in this document: reference of the scale not given here.
For LDH Increase - Index Value in this document: reference of the scale not given here.

Take `CCCCC(C)(O)C/C=C/[C@H]1[C@H](O)CC(=O)[C@@H]1CCCCCCC(=O)OC` (some centres not stated) [MISOPROSTOL]: in the data set on Hepatotoxicity [1], the “SGOT Increase - Activity Score” value is on record as “Inactive”, the “SGOT Increase - Index Value” is recorded as 0.8 and the “SGOT Increase - Number of Reports” value is reported as “>= 4”. Moreover, in the data set on Hepatotoxicity [2], the “Alkaline Phosphatase Increase - Activity Score” value was “Inactive”, the “Alkaline Phosphatase Increase - Index Value” was found to be 0.8 and the “Alkaline Phosphatase Increase - Number of Reports” value was “>= 4”. Besides, in the data set with Hepatotoxicity [3], the “Composite Activity - Active” value is reported as 0, the “Composite Activity - Marginal” value is recorded as 0 and the “Composite Activity - Score” value is “Inactive”. In the data set with Hepatotoxicity [4], the “GGT Increase - Activity Score” value was “Inactive”, the “GGT Increase - Index Value” was 0.5 and the “GGT Increase - Number of Reports” value is < 4. Further, in the data set on Hepatotoxicity [5], the “SGPT Increase - Activity Score” value is reported as “Inactive”, the “SGPT Increase - Index Value” was 0.2 and the “SGPT Increase - Number of Reports” value is reported as < 4. In addition, in the data set with Hepatotoxicity [6], the “LDH Increase - Activity Score” value is on record as “Inactive”, the “LDH Increase - Index Value” is recorded as 0.5 and the “LDH Increase - Number of Reports” value is < 4.
Regarding `O=C1c2c(O)ccc(O)c2C(=O)c2c(NCCNCCO)ccc(NCCNCCO)c21` [MITOXANTRONE], in the data set on Hepatotoxicity [1], the “SGOT Increase - Activity Score” value is on record as “Active”, the “SGOT Increase - Index Value” was found to be 13.5 and the “SGOT Increase - Number of Reports” value is < 4. In addition, in the data set on Hepatotoxicity [2], the “Alkaline Phosphatase Increase - Activity Score” value is on record as “Inactive”, the “Alkaline Phosphatase Increase - Index Value” came out at 4.5 and the “Alkaline Phosphatase Increase - Number of Reports” value is < 4. Further, in the data set with Hepatotoxicity [3], the “Composite Activity - Active” value was determined as 1, the “Composite Activity - Marginal” value worked out at 0 and the “Composite Activity - Score” value is “Inactive”. Moreover, in the data set with Hepatotoxicity [4], the “GGT Increase - Activity Score” value was “Inactive”, the “GGT Increase - Index Value” was 0 and the “GGT Increase - Number of Reports” value is < 4. For the same compound, in the data set on Hepatotoxicity [5], the “SGPT Increase - Activity Score” value is “Inactive”, the “SGPT Increase - Index Value” was 4.5 and the “SGPT Increase - Number of Reports” value is < 4. In the data set on Hepatotoxicity [6], the “LDH Increase - Activity Score” value is recorded as “Inactive”, the “LDH Increase - Index Value” worked out at 0 and the “LDH Increase - Number of Reports” value is < 4.
In the case of `COc1cc2c(cc1OC)[C@@H](Cc1cc(OC)c(OC)c(OC)c1)[N+](C)(CCCOC(=O)CC/C=C/CCC(=O)OCCC[N+]1(C)CCc3cc(OC)c(OC)cc3[C@H]1Cc1cc(OC)c(OC)c(OC)c1)CC2.[Cl-].[Cl-]` (some centres not stated) [MIVACURIUM CHLORIDE], in the data set on Hepatotoxicity [1], the “SGOT Increase - Activity Score” value is “Inactive”, the “SGOT Increase - Index Value” is 0 and the “SGOT Increase - Number of Reports” value is < 4. Moreover, in the data set with Hepatotoxicity [2], the “Alkaline Phosphatase Increase - Activity Score” value was “Inactive”, the “Alkaline Phosphatase Increase - Index Value” is listed as 0 and the “Alkaline Phosphatase Increase - Number of Reports” value is reported as < 4. In the data set with Hepatotoxicity [3], the “Composite Activity - Active” value is 0, the “Composite Activity - Marginal” value was 0 and the “Composite Activity - Score” value is “Inactive”. For the same compound, in the data set on Hepatotoxicity [4], the “GGT Increase - Activity Score” value was “Inactive”, the “GGT Increase - Index Value” was found to be 0 and the “GGT Increase - Number of Reports” value was < 4. Moreover, in the data set with Hepatotoxicity [5], the “SGPT Increase - Activity Score” value is given as “Inactive”, the “SGPT Increase - Index Value” worked out at 0 and the “SGPT Increase - Number of Reports” value was < 4. In addition, in the data set on Hepatotoxicity [6], the “LDH Increase - Activity Score” value is given as “Inactive”, the “LDH Increase - Index Value” is given as 0 and the “LDH Increase - Number of Reports” value is listed as < 4.
Take `CCOC(=O)[C@H](CCc1ccccc1)N[C@@H](C)C(=O)N1Cc2cc(OC)c(OC)cc2C[C@H]1C(=O)O` [MOEXIPRIL]: in the data set with Hepatotoxicity [1], the “SGOT Increase - Activity Score” value is reported as “Inactive”, the “SGOT Increase - Index Value” turned out to be 1.3 and the “SGOT Increase - Number of Reports” value is listed as < 4. In the data set with Hepatotoxicity [2], the “Alkaline Phosphatase Increase - Activity Score” value is recorded as “Inactive”, the “Alkaline Phosphatase Increase - Index Value” came out at 0 and the “Alkaline Phosphatase Increase - Number of Reports” value was < 4. Besides, in the data set with Hepatotoxicity [3], the “Composite Activity - Active” value is listed as 0, the “Composite Activity - Marginal” value was 0 and the “Composite Activity - Score” value is on record as “Inactive”. Besides, in the data set with Hepatotoxicity [4], the “GGT Increase - Activity Score” value is “Inactive”, the “GGT Increase - Index Value” is given as 0 and the “GGT Increase - Number of Reports” value is < 4. Moreover, in the data set with Hepatotoxicity [5], the “SGPT Increase - Activity Score” value is recorded as “Inactive”, the “SGPT Increase - Index Value” was 1.3 and the “SGPT Increase - Number of Reports” value is < 4. Further, in the data set with Hepatotoxicity [6], the “LDH Increase - Activity Score” value is “Inactive”, the “LDH Increase - Index Value” is given as 0 and the “LDH Increase - Number of Reports” value was < 4.
Consider `C[C@@H]1C[C@H]2[C@@H]3CCC4=CC(=O)C=C[C@]4(C)[C@@]3(Cl)[C@@H](O)C[C@]2(C)[C@@]1(O)C(=O)CCl` [MOMETASONE], for which, in the data set with Hepatotoxicity [1], the “SGOT Increase - Activity Score” value is on record as “Inactive”, the “SGOT Increase - Index Value” is 0 and the “SGOT Increase - Number of Reports” value was < 4. Also, in the data set with Hepatotoxicity [2], the “Alkaline Phosphatase Increase - Activity Score” value is reported as “Inactive”, the “Alkaline Phosphatase Increase - Index Value” is given as 0 and the “Alkaline Phosphatase Increase - Number of Reports” value was < 4. In the data set with Hepatotoxicity [3], the “Composite Activity - Active” value was 0, the “Composite Activity - Marginal” value is on record as 0 and the “Composite Activity - Score” value is “Inactive”. In the data set with Hepatotoxicity [4], the “GGT Increase - Activity Score” value is given as “Inactive”, the “GGT Increase - Index Value” is reported as 0 and the “GGT Increase - Number of Reports” value is < 4. Moreover, in the data set with Hepatotoxicity [5], the “SGPT Increase - Activity Score” value is on record as “Inactive”, the “SGPT Increase - Index Value” was 0 and the “SGPT Increase - Number of Reports” value is < 4. Further, in the data set with Hepatotoxicity [6], the “LDH Increase - Activity Score” value is given as “Inactive”, the “LDH Increase - Index Value” is recorded as 0 and the “LDH Increase - Number of Reports” value was < 4.
With `CCOC(=O)Nc1ccc2c(c1)N(C(=O)CCN1CCOCC1)c1ccccc1S2` [MORICIZINE], in the data set on Hepatotoxicity [1], the “SGOT Increase - Activity Score” value was “Active”, the “SGOT Increase - Index Value” is 13.7 and the “SGOT Increase - Number of Reports” value is “>= 4”. In the data set with Hepatotoxicity [2], the “Alkaline Phosphatase Increase - Activity Score” value was “Inactive”, the “Alkaline Phosphatase Increase - Index Value” is reported as 3.4 and the “Alkaline Phosphatase Increase - Number of Reports” value was < 4. Moreover, in the data set with Hepatotoxicity [3], the “Composite Activity - Active” value stood at 1, the “Composite Activity - Marginal” value came out at 0 and the “Composite Activity - Score” value is “Inactive”. In addition, in the data set with Hepatotoxicity [4], the “GGT Increase - Activity Score” value is “Inactive”, the “GGT Increase - Index Value” is 0 and the “GGT Increase - Number of Reports” value is < 4. In addition, in the data set on Hepatotoxicity [5], the “SGPT Increase - Activity Score” value is on record as “Inactive”, the “SGPT Increase - Index Value” is listed as 3.4 and the “SGPT Increase - Number of Reports” value was < 4. Moreover, in the data set on Hepatotoxicity [6], the “LDH Increase - Activity Score” value is “Inactive”, the “LDH Increase - Index Value” was determined as 3.4 and the “LDH Increase - Number of Reports” value is < 4.
Take `C/C(=C\C(=O)OCCCCCCCCC(=O)O)C[C@@H]1OC[C@H](C[C@@H]2O[C@H]2[C@@H](C)[C@H](C)O)[C@@H](O)[C@H]1O` [MUPIROCIN]: in the data set on Hepatotoxicity [1], the “SGOT Increase - Activity Score” value is “Inactive”, the “SGOT Increase - Index Value” is 0 and the “SGOT Increase - Number of Reports” value is reported as < 4. In addition, in the data set with Hepatotoxicity [2], the “Alkaline Phosphatase Increase - Activity Score” value is “Inactive”, the “Alkaline Phosphatase Increase - Index Value” is 0 and the “Alkaline Phosphatase Increase - Number of Reports” value is reported as < 4. Besides, in the data set on Hepatotoxicity [3], the “Composite Activity - Active” value amounted to 0, the “Composite Activity - Marginal” value was 0 and the “Composite Activity - Score” value is recorded as “Inactive”. In the data set with Hepatotoxicity [4], the “GGT Increase - Activity Score” value is “Inactive”, the “GGT Increase - Index Value” came out at 0 and the “GGT Increase - Number of Reports” value is < 4. Also, in the data set on Hepatotoxicity [5], the “SGPT Increase - Activity Score” value is reported as “Inactive”, the “SGPT Increase - Index Value” is 0 and the “SGPT Increase - Number of Reports” value was < 4. In addition, in the data set on Hepatotoxicity [6], the “LDH Increase - Activity Score” value is “Inactive”, the “LDH Increase - Index Value” is on record as 0 and the “LDH Increase - Number of Reports” value is reported as < 4.
Turning to `COc1c(C)c2c(c(O)c1C/C=C(\C)CCC(=O)O)C(=O)OC2` [MYCOPHENOLIC ACID], in the data set with Hepatotoxicity [1], the “SGOT Increase - Activity Score” value was “Inactive”, the “SGOT Increase - Index Value” was 3.8 and the “SGOT Increase - Number of Reports” value was < 4. Also, in the data set on Hepatotoxicity [2], the “Alkaline Phosphatase Increase - Activity Score” value was “Inactive”, the “Alkaline Phosphatase Increase - Index Value” is on record as 5.7 and the “Alkaline Phosphatase Increase - Number of Reports” value is on record as < 4. Moreover, in the data set with Hepatotoxicity [3], the “Composite Activity - Active” value turned out to be 1, the “Composite Activity - Marginal” value worked out at 0 and the “Composite Activity - Score” value is reported as “Inactive”. Also, in the data set on Hepatotoxicity [4], the “GGT Increase - Activity Score” value is given as “Inactive”, the “GGT Increase - Index Value” stood at 3.8 and the “GGT Increase - Number of Reports” value is < 4. In addition, in the data set on Hepatotoxicity [5], the “SGPT Increase - Activity Score” value is “Active”, the “SGPT Increase - Index Value” was determined as 9.6 and the “SGPT Increase - Number of Reports” value is “>= 4”. In the data set with Hepatotoxicity [6], the “LDH Increase - Activity Score” value was “Inactive”, the “LDH Increase - Index Value” was 1.9 and the “LDH Increase - Number of Reports” value is listed as < 4.
`CCCCCCC(C)(C)c1cc(O)c2c(c1)OC(C)(C)C1CCC(=O)CC21` (configuration not stated) [NABILONE]: in the data set on Hepatotoxicity [1], the “SGOT Increase - Activity Score” value was “Inactive”, the “SGOT Increase - Index Value” was found to be 0 and the “SGOT Increase - Number of Reports” value is on record as < 4. For the same compound, in the data set with Hepatotoxicity [2], the “Alkaline Phosphatase Increase - Activity Score” value was “Inactive”, the “Alkaline Phosphatase Increase - Index Value” is reported as 0 and the “Alkaline Phosphatase Increase - Number of Reports” value is < 4. For the same compound, in the data set on Hepatotoxicity [3], the “Composite Activity - Active” value was determined as 0, the “Composite Activity - Marginal” value is listed as 0 and the “Composite Activity - Score” value is given as “Inactive”. For the same compound, in the data set on Hepatotoxicity [4], the “GGT Increase - Activity Score” value is “Inactive”, the “GGT Increase - Index Value” came out at 0 and the “GGT Increase - Number of Reports” value is < 4. Besides, in the data set on Hepatotoxicity [5], the “SGPT Increase - Activity Score” value was “Inactive”, the “SGPT Increase - Index Value” is 0 and the “SGPT Increase - Number of Reports” value was < 4. In the data set with Hepatotoxicity [6], the “LDH Increase - Activity Score” value is recorded as “Inactive”, the “LDH Increase - Index Value” was found to be 0 and the “LDH Increase - Number of Reports” value was < 4.
